# Experimental data as given in patent US20220088016A1, “CANCER TREATMENT USING MULTI-TARGETED KINASE INHIBITOR IN COMBINATION OF PROTEIN KINASE BIOMARKERS” (ZHEJIANG CROWNMAB BIOTECH CO. LTD., priority 2019, published 2022).
# Tests used:
# [1] = target: ABL1 (H396P)-phosphorylated (Homo sapiens, UniProt P00519, H396P); assay: Kinase profiling; type: binding; settings: read-out: % Ctrl @ 1000 nM
# [2] = target: ABL2 (Homo sapiens, UniProt P42684); assay: Kinase profiling; type: binding; settings: read-out: % Ctrl @ 1000 nM
# [3] = target: ALK (Homo sapiens, UniProt Q9UM73); assay: Kinase profiling; type: binding; settings: read-out: % Ctrl @ 1000 nM
# [4] = target: AMPK-alpha1 (Homo sapiens, UniProt Q13131); assay: Kinase profiling; type: binding; settings: read-out: % Ctrl @ 1000 nM
# [5] = target: ARK5 (Homo sapiens, UniProt O60285); assay: Kinase profiling; type: binding; settings: read-out: % Ctrl @ 1000 nM
# [6] = target: BRAF (Homo sapiens, UniProt P15056); assay: Kinase profiling; type: binding; settings: read-out: % Ctrl @ 1000 nM
# [7] = target: BTK (Homo sapiens, UniProt Q06187); assay: Kinase profiling; type: binding; settings: read-out: % Ctrl @ 1000 nM
# [8] = target: CAMK1G (Homo sapiens, UniProt Q96NX5); assay: Kinase profiling; type: binding; settings: read-out: % Ctrl @ 1000 nM
# [9] = target: CDK3 (Homo sapiens, UniProt Q00526); assay: Kinase profiling; type: binding; settings: read-out: % Ctrl @ 1000 nM
# [10] = target: DCAMKL2 (Homo sapiens, UniProt Q8N568); assay: Kinase profiling; type: binding; settings: read-out: % Ctrl @ 1000 nM
# [11] = target: ERN1 (Homo sapiens, UniProt O75460); assay: Kinase profiling; type: binding; settings: read-out: % Ctrl @ 1000 nM
# [12] = target: FLT4 (Homo sapiens, UniProt P35916); assay: Kinase profiling; type: binding; settings: read-out: % Ctrl @ 1000 nM
# [13] = target: IRAK1 (Homo sapiens, UniProt P51617); assay: Kinase profiling; type: binding; settings: read-out: % Ctrl @ 1000 nM
# [14] = target: KIT (D816H) (Homo sapiens, UniProt P10721, D816H); assay: Kinase profiling; type: binding; settings: read-out: % Ctrl @ 1000 nM
# [15] = target: MAP4K3 (Homo sapiens, UniProt Q8IVH8); assay: Kinase profiling; type: binding; settings: read-out: % Ctrl @ 1000 nM
# [16] = target: MARK2 (Homo sapiens, UniProt Q7KZI7); assay: Kinase profiling; type: binding; settings: read-out: % Ctrl @ 1000 nM
# [17] = target: MARK4 (Homo sapiens, UniProt Q96L34); assay: Kinase profiling; type: binding; settings: read-out: % Ctrl @ 1000 nM
# [18] = target: T1, MEK1 (Homo sapiens, UniProt Q02750); assay: Kinase profiling; type: binding; settings: read-out: % Ctrl @ 1000 nM
# T1 construct: T7 phage fusion (stated for most kinases of the panel only); made in house; host or cells: T7 phage in E. coli (BL21-derived) or HEK-293 cells
# [19] = target: T2, MUSK (Homo sapiens, UniProt O15146); assay: Kinase profiling; type: binding; settings: read-out: % Ctrl @ 1000 nM
# T2 construct: T7 phage fusion (said for most assays); made in house
# [20] = target: T3, NEK2 (Homo sapiens, UniProt P51955); assay: Kinase profiling; type: binding; settings: read-out: % Ctrl @ 1000 nM
# T3 construct: T7 phage fusion (said for most assays); made in house
# [21] = target: T4, NIK (Homo sapiens, UniProt Q99558); assay: Kinase profiling; type: binding; settings: read-out: % Ctrl @ 1000 nM
# T4 construct: T7 phage fusion (said for most assays); made in house
# [22] = target: PIK3CA (C420R) (Homo sapiens, UniProt P42336, C420R); assay: Kinase profiling; type: binding; settings: read-out: % Ctrl @ 1000 nM
# [23] = target: PIK3CA (Q546K) (Homo sapiens, UniProt P42336, Q546K); assay: Kinase profiling; type: binding; settings: read-out: % Ctrl @ 1000 nM
# [24] = target: PIK3CB (Homo sapiens, UniProt P42338); assay: Kinase profiling; type: binding; settings: read-out: % Ctrl @ 1000 nM
# [25] = target: PLK2 (Homo sapiens, UniProt Q9NYY3); assay: Kinase profiling; type: binding; settings: read-out: % Ctrl @ 1000 nM
# [26] = target: PRKCI (Homo sapiens, UniProt P41743); assay: Kinase profiling; type: binding; settings: read-out: % Ctrl @ 1000 nM
# [27] = target: PRKG2 (Homo sapiens, UniProt Q13237); assay: Kinase profiling; type: binding; settings: read-out: % Ctrl @ 1000 nM
# [28] = target: RET (M918T) (Homo sapiens, UniProt P07949, M918T); assay: Kinase profiling; type: binding; settings: read-out: % Ctrl @ 1000 nM
# [29] = target: RIOK2 (Homo sapiens, UniProt Q9BVS4); assay: Kinase profiling; type: binding; settings: read-out: % Ctrl @ 1000 nM
# [30] = target: RSK2 (Kin.Dom.1-N-terminal) (Homo sapiens, UniProt P51812); assay: Kinase profiling; type: binding; settings: read-out: % Ctrl @ 1000 nM
# [31] = target: RSK2 (Kin.Dom.2-C-terminal) (Homo sapiens, UniProt P51812); assay: Kinase profiling; type: binding; settings: read-out: % Ctrl @ 1000 nM
# [32] = target: SRMS (Homo sapiens, UniProt Q9H3Y6); assay: Kinase profiling; type: binding; settings: read-out: % Ctrl @ 1000 nM
# [33] = target: SRPK1 (Homo sapiens, UniProt Q96SB4); assay: Kinase profiling; type: binding; settings: read-out: % Ctrl @ 1000 nM
# [34] = target: TAOK2 (Homo sapiens, UniProt Q9UL54); assay: Kinase profiling; type: binding; settings: read-out: % Ctrl @ 1000 nM
# [35] = test system: RAW264.7 cells; assay: Proliferation of RAW264.7 cells (CTG assay); type: cell-based; settings: RAW264.7 (CSF-1 independent, negative control), 3 days
# Method: Two syngeneic cell lines M-NFS-60 and RAW264.7 and engineered BaF3 hCSFIR cell line were starved and then tested with CBT-102 and other test articles for 3 days in the temperature of 37° C., 5% CO2 and 95% humidity. The cell viability was then detected using CTG assay. The software of GraphPad Prism was used to calculate IC50.
# CSF-1 dependent mouse myeloid M-NFS-60 cells were employed as target cells while a CSF-1 independent cell line Raw 264.7 was used as a negative control. In addition to CBT-102, the study also included 3 CSF-1R inhibitors: GW2580, BLZ945 and Pexidartinib.
# CAMK1G, sequence (Q96NX5 whole entry): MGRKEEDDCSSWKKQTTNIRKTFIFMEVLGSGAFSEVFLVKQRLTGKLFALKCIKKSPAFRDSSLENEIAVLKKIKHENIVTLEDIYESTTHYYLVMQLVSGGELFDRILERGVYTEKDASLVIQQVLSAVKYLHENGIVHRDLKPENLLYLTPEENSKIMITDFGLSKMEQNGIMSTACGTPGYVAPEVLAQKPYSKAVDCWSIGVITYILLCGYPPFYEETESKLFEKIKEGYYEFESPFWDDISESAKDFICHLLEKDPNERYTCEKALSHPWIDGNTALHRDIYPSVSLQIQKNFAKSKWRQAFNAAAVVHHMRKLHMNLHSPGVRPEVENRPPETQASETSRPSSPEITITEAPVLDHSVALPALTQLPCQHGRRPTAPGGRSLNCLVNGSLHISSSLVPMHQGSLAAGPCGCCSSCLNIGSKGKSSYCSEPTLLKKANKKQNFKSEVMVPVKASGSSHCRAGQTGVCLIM
# ERN1, sequence (O75460 19-977): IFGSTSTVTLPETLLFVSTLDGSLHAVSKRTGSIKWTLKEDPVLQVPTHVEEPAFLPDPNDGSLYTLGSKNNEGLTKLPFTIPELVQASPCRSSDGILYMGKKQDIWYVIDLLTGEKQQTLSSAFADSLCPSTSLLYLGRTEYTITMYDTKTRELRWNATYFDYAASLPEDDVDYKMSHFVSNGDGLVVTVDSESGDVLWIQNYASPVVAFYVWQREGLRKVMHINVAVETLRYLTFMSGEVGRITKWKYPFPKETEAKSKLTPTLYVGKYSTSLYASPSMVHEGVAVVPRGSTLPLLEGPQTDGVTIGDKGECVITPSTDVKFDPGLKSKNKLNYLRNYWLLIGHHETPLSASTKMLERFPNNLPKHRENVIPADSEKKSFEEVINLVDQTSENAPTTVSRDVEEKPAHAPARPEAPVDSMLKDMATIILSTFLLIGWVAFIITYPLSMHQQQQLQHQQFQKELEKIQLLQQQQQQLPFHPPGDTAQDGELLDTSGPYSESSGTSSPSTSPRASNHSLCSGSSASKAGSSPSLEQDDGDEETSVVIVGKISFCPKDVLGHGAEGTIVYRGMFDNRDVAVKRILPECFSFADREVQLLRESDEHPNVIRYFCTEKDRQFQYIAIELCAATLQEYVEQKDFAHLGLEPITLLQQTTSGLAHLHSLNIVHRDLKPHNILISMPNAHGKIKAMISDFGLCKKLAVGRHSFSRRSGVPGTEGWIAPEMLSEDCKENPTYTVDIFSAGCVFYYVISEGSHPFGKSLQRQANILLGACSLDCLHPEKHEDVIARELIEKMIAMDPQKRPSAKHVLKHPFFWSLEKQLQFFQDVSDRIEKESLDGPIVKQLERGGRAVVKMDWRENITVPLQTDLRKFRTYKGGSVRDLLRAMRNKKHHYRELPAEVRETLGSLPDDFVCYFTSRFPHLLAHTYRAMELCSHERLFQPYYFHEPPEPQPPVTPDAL
# ABL2, sequence (P42684 whole entry): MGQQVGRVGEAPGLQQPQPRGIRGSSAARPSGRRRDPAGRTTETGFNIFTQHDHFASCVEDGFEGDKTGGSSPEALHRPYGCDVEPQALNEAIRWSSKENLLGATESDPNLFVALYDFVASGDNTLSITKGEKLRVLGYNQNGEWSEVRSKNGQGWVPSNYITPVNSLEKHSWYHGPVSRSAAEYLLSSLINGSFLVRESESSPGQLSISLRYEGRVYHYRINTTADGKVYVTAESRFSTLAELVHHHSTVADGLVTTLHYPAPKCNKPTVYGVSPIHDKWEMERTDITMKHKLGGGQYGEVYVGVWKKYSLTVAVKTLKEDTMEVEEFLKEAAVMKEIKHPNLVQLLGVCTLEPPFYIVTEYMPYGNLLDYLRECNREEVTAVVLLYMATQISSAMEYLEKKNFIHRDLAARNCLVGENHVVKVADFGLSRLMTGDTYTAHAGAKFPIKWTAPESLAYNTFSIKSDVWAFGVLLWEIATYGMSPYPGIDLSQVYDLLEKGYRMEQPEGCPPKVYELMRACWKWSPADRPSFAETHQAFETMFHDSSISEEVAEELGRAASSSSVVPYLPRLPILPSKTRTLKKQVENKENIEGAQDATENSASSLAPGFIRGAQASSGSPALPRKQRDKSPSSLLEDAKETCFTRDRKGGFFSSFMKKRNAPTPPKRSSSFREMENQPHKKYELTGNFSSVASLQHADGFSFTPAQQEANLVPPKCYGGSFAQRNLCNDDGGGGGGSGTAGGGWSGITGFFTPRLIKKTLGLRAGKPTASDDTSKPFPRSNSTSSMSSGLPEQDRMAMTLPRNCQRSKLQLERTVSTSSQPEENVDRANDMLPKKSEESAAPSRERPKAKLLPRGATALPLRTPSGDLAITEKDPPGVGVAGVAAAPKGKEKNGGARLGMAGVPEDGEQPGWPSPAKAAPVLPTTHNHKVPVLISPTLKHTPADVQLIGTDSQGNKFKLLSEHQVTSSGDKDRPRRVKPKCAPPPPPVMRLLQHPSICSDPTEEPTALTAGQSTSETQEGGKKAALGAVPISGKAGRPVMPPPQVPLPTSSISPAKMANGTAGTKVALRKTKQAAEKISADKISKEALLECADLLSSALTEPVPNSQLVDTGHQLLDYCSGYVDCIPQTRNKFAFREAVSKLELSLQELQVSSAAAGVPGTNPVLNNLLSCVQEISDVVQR
# T3 sequence (P51955 whole entry, the tested form may be a part): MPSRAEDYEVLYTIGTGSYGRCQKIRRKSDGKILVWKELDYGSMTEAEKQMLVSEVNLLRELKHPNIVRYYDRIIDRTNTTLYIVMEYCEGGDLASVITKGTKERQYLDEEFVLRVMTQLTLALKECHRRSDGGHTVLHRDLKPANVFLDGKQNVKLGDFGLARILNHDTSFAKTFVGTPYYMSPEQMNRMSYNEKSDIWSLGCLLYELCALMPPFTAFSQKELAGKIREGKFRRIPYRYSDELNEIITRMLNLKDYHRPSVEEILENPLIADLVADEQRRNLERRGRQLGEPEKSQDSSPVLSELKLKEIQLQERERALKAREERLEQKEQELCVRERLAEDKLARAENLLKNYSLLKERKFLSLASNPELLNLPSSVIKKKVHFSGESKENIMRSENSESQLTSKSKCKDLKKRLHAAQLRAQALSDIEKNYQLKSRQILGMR
# TAOK2, sequence (Q9UL54 whole entry): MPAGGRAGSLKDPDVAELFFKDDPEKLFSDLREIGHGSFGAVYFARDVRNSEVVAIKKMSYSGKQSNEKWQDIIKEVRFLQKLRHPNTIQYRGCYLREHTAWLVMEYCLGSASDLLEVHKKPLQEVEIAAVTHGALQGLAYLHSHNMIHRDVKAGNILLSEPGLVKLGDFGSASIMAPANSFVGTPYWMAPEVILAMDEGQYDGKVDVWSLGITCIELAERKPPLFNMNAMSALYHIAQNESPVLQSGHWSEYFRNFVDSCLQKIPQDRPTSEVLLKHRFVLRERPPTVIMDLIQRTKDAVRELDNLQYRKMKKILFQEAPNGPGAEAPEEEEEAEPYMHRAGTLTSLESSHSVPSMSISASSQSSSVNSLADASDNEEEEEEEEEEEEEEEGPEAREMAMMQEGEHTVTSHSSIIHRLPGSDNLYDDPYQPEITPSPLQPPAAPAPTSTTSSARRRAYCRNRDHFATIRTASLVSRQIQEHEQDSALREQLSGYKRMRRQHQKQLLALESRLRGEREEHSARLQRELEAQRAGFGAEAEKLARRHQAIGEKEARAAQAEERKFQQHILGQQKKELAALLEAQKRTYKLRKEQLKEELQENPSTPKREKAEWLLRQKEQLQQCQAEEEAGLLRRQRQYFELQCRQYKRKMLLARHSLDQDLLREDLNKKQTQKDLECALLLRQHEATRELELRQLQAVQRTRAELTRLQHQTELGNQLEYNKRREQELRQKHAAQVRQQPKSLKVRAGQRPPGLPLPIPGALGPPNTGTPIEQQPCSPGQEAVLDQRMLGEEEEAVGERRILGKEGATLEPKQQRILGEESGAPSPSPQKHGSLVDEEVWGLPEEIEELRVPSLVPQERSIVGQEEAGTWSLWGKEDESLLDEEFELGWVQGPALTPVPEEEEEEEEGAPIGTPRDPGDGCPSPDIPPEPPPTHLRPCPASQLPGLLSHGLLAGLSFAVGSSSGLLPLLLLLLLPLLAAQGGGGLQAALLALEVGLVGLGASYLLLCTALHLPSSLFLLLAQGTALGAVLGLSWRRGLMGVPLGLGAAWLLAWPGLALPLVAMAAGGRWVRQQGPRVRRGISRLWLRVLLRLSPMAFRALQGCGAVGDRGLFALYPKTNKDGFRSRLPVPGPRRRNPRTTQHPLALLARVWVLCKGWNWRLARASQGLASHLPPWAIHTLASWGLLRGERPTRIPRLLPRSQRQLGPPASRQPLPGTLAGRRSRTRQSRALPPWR
# BRAF, sequence (P15056 whole entry): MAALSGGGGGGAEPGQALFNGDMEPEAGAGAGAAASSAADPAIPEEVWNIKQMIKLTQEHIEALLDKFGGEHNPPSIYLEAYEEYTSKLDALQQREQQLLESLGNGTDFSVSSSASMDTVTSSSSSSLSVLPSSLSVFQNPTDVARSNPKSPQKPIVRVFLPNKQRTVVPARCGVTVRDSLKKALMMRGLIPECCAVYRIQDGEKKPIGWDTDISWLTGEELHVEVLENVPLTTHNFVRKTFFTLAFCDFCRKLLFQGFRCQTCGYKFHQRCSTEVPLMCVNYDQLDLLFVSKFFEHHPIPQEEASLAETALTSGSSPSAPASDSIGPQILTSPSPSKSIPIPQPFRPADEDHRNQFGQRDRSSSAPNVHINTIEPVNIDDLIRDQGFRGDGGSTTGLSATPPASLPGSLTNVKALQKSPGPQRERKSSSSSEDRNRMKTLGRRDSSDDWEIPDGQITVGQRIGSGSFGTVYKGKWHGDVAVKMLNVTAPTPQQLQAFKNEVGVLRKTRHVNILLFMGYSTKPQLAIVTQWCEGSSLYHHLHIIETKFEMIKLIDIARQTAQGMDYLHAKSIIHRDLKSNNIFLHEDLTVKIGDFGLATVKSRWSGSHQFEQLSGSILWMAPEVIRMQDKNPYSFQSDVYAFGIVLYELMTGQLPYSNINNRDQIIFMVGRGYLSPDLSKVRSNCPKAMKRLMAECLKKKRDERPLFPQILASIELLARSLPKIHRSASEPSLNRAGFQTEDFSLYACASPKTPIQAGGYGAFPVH
compound,measurement,setting,value
Cc1cc(Oc2cc(NC(=O)C3CC3)ncn2)ccc1NC(=O)Nc1ccc(Cl)c(C(F)(F)F)c1 [CBT-102],remaining activity at 1 µM,[1],83%
same,remaining activity at 1 µM,[2],40%
same,remaining activity at 1 µM,[3],100%
same,remaining activity at 1 µM,[4],98%
same,remaining activity at 1 µM,[5],100%
same,remaining activity at 1 µM,[6],6.1%
same,remaining activity at 1 µM,[7],77%
same,remaining activity at 1 µM,[8],91%
same,remaining activity at 1 µM,[9],90%
same,remaining activity at 1 µM,[10],95%
same,remaining activity at 1 µM,[11],78%
same,remaining activity at 1 µM,[12],0.05%
same,remaining activity at 1 µM,[13],75%
same,remaining activity at 1 µM,[14],37%
same,remaining activity at 1 µM,[15],19%
same,remaining activity at 1 µM,[16],76%
same,remaining activity at 1 µM,[17],100%
same,remaining activity at 1 µM,[18],83%
same,remaining activity at 1 µM,[19],47%
same,remaining activity at 1 µM,[20],98%
same,remaining activity at 1 µM,[21],100%
same,remaining activity at 1 µM,[22],100%
same,remaining activity at 1 µM,[23],100%
same,remaining activity at 1 µM,[24],100%
same,remaining activity at 1 µM,[25],93%
same,remaining activity at 1 µM,[26],74%
same,remaining activity at 1 µM,[27],91%
same,remaining activity at 1 µM,[28],0.1%
same,remaining activity at 1 µM,[29],92%
same,remaining activity at 1 µM,[30],97%
same,remaining activity at 1 µM,[31],83%
same,remaining activity at 1 µM,[32],99%
same,remaining activity at 1 µM,[33],56%
same,remaining activity at 1 µM,[34],23%
same,IC50,"[35]; Mus musculus, 72 h",22.9 µM
same,Max inh.,[35],95.44%
